Source: patent publication US6348317B1, “Fluorescent and DNA cleavage properties of peptide/dye conjugates” (The Arizona Board of Regents, priority 1999, dated 2002)

How the values were obtained:
Experiment in all cases: Thiazole orange total fluorescence titration with unlabeled DNA
[1] = biological target: GRE1 dsDNA (native GRE target sequence); settings: TO fluorescence ex 510 nm, em 535 nm; read-out: dissociation constant, two-state binding model
Procedure: (§1) Fluorescence Measurements. Steady state fluorescence anisotropy measurements were carried out in 20 mM Tris (pH 7.9), 30 mM NaCl, 20 mM KCl, 1 mM MgCl2, and 5% glycerol. […] DNA samples used were either the non-labeled sequences shown in FIG. 2 or a fluorescein labeled duplex with a sequence matching GRE2 (FIG. 2).
(§2) For non-labeled DNA titrations (measuring the fluorescence from thiazole orange), the excitation wavelength was 510 nm and the emission was recorded at 535 nm with a 1.0 nm slit width. Glass cuvettes were used with a 0.3 cm path length. Titrations were performed using a constant concentration of unconjugated thiazole orange (TO) or TO-ZF and titrated with DNA as indicated.
(§3) Total fluorescence data were collected in parallel to the anisotropy measurements and were calculated from raw data as the fluorescence intensity in the vertical plane plus two times the fluorescence intensity of the horizontal plane, (TF=Ivv+2Ivh). These values were used to determine the percent of the maximum fluorescence for each point along the titration and fit to equation 2. [formula]
(§4) In equation 2, f corresponds to the fraction of TO-ZF conjugate bound at a given concentration of DNA. The concentration given as [TO(ZF)]T corresponds to either the unconjugated thiazole orange or the TOZF conjugate as indicated and [GRE]T is the total concentration of GRE binding sites. The parameter of the fit was the dissociation constant (Kd).
(§5) Titrations of the TO fluorescence upon binding of TO-ZF to unlabeled DNA were measured for the dsDNA sequences shown in FIG. 2. TO fluorescence was excited at 510 nm and collected at 535 nm. The GRE1 DNA sequence contains the same binding site as does the GRE2 DNA sequence used above, however, the GRE3 sequence contains a single mutation of the guanine in the native GRE target sequence (5′-TGTTCT-3′) to an adenine. The GRE2 and GRE3 sequences were generated for use in the photocleavage measurements described below. Finally, the GRE4 and ERE recognition sequences are from the non-specific GRE halfsite and the estrogen response element (ERE), respectively. M. A. L. Eriksson, J. Molec. Biol. 253:453-472 (1995). These are used in conjunction with the other sequences to determine the sensitivity of this probe. The DNA is not fluorescently labeled in these measurements. Therefore, the fluorescence is exclusively from thiazole orange molecules intercalated into dsDNA.
(§6) Fitting the binding curves to a two-state binding model (see Materials and Methods) results in a dissociation constant of 25 nM for GRE1 and GRE2, which contain the native GRE. Titrations of the modified GRE sequences and the ERE sequence yielded binding constants of 57 nM, 220 nM and 810 nM for the TO-ZF conjugate bound to GRE3, GRE4, and ERE, respectively.

[2] = biological target: GRE2 dsDNA (native GRE target sequence); settings: TO fluorescence ex 510 nm, em 535 nm; read-out: dissociation constant, two-state binding model
Procedure: as §1, §2, §3, §4, §5, §6

[3] = biological target: GRE4 dsDNA (non-specific GRE halfsite); settings: TO fluorescence ex 510 nm, em 535 nm; read-out: binding constant (dissociation constant)
Procedure: as §1, §2, §3, §4, §5, §6

[4] = biological target: GRE3 dsDNA (guanine of GRE changed to adenine); settings: TO fluorescence ex 510 nm, em 535 nm; read-out: binding constant (dissociation constant)
Procedure: as §1, §2, §3, §4, §5, §6

[5] = biological target: ERE dsDNA (estrogen response element); settings: TO fluorescence ex 510 nm, em 535 nm; read-out: binding constant (dissociation constant)
Procedure: as §1, §2, §3, §4, §5, §6

TO-ZF: 29 amino acid single zinc finger from residues 438-465 of glucocorticoid receptor, thiazole orange coupled to a lysine ε-amine
Kd [1]: 25 nM
Kd [2]: 25 nM
Kd [3]: 220 nM
Kd [4]: 57 nM
Kd [5]: 810 nM
